# Values quoted from earlier work in patent US12594250B2, “Prevention of accumulated tolerance to stimulant medication for the treatment of ADHD” (priority 2021, dated 2026).
# Like-named read-outs stand apart in the source and are kept apart here.
# Columns and labels:
# children with ADHD [1] = tested on: children with ADHD
# DA Transporter (DAT) = target: T1, DA Transporter (DAT) (Homo sapiens, UniProt Q01959); conditions: adults with ADHD, a year of consistent medication use
# T1 construct: dopamine transporter density was increased in specific dopamine regions of the brain; host or cells: living brain (caudate nucleus, nucleus accumbens) of adults with ADHD; endogenous protein
# T1 sequence (Q01959 whole entry): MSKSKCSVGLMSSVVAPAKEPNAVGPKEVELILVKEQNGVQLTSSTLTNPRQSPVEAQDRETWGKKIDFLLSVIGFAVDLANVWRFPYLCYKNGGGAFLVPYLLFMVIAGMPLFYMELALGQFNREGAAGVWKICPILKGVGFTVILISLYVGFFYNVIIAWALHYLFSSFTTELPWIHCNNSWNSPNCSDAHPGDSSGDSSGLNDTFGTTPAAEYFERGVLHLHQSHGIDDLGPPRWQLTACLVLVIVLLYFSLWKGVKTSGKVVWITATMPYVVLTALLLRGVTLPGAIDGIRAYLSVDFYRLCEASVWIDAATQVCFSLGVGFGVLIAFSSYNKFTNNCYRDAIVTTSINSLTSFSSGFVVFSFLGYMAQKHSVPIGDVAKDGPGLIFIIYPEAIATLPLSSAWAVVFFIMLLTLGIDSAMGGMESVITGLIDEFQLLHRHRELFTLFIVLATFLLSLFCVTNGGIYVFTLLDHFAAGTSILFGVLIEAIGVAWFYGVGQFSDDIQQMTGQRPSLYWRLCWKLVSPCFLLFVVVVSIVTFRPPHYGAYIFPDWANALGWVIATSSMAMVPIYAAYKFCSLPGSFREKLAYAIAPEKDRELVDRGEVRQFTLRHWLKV
# [2] = oral administration; for time to maximum serum concentration (C-max): immediate-release bolus
# children with ADHD [3] = conditions: for duration of effect / action / efficacy: after one administration
# ADHD = conditions: high dose of IR formulation
smiles,measurement,setting,value
COC(=O)C(c1ccccc1)C1CCCCN1 (centres unmarked) [methylphenidate],effect (PD response) across the day,children with ADHD [1]; ascending PK profile,increasing effect
same,effect (PD response) across the day,children with ADHD [1]; flat PK profile,decreasing effect
same,DAT density,DA Transporter (DAT),increases DAT density
same,time to maximum serum concentration (C-max),[2],about 1 hours
same,half-life (T-½),[2]; serum concentration,2 to 3 h
same,duration of effect / action / efficacy,children with ADHD [3]; listed as Ritalin,3 h
same,onset of clinical effect (reduction in symptoms),children with ADHD [3]; after oral administration,within an hour
NC(=O)C[S+]([O-])C(c1ccccc1)c1ccccc1 (centres unmarked) [modafinil],serious side effects,ADHD,a few cases were suspected of serious dermatologic side effects
CC(N)Cc1ccccc1 (centres unmarked) [amphetamine],time to maximum serum concentration (C-max),[2],about 2 hours
same,duration of constant effect,children with ADHD [3]; twice-a-day (BID) dosing of immediate-release,10 to 12 h
"NC1=NC(=O)C(c2ccccc2)O1 (centres unmarked) [Cylert, pemoline]",duration of effect / action / efficacy,children with ADHD [3],6 h
